# Test results: patent US20250136581A1, “SUBSTITUTED TRIAZOLE DERIVATIVE, PREPARATION METHOD THEREFOR, PHARMACEUTICAL COMPOSITION THEREOF, AND USE THEREOF” (SHANGHAI SIMR BIOTECHNOLOGY CO., LTD., priority 2021, published 2025)
# What was measured:
# [1] = biological target: α5-GABAA receptor (α5, β3, γ2 subunits) (Homo sapiens (Human), UniProt P18507+P31644); experiment: Whole cell patch clamp, inverse agonist efficacy in HEK293 cells expressing α5-GABAA receptor; type: cell-based; conditions: HEK293, drug 100 nM, GABA 0.05 μM, −60 mV; read-out: Compound inverse agonist efficacy %
# Source text: The inventors used electrophysiological methods to determine the inverse agonist efficacy of the drugs to be tested on the α5-GABAA receptor. The detailed methods are as follows:
# Different subunits of the GABAA receptor were co-expressed in the HEK293 cell line to construct a fully functional GABAA receptor. The α, β, and γ subunits are essential to form a complete functional GABAA receptor. In this example, the present disclosure had established the following cell model: α5 subunit (see GenBank Accession No.: NM_000810.3 for protein sequences), β3 subunit (see GenBank Accession No.: NM_000814.5 for protein sequences), and γ2 subunit (see GenBank Accession No.: NM_000816.3 for protein sequences) were co-expressed in the HEK293 cell line, followed by screening the monoclonal stably transfected cell line. This cell line expressed a fully functional α5-GABAA receptor.
# The monoclonal stably transfected HEK293 cell line expressing α5-GABAA receptor were cultured in 10 cm culture dishes and passaged when the cells grew to 80% to 90% confluent. During passaging, the culture medium was aspirated first, then 3 mL of DPBS phosphate buffer salt (Gibco™) was added to the culture dishes, and the culture dishes were shaken slightly, and DPBS was aspirated. 1 mL of trypsin (TrypLE Express, Gibco™) was added thereto, and the cells were digested at 37° C. for 1-2 minutes. Then 3 mL of complete medium (DMEM+10% FBS (Gibco™)) was added and the cells at the bottom of the culture dishes were dispersed. The cell suspension was transferred to a 15 mL centrifugal tube (Corning) and then centrifuged at 200 g for 3 minutes. The supernatant was discarded, 4 mL of complete medium was added, and the cells were gently blown and resuspended for use. If cell passaging was performed, the cell suspension was diluted at a ratio of 1:5 or 1:10. If cells for electrophysiological detection were prepared, the cell suspension was diluted in a ratio of 1:12, then added into a 24-well dish (Corning™) in which glass slides were placed and pretreated with Poly-D-Lysine, and the experiment was carried out after the cells adhered to the wall. The cells used for electrophysiology was cultured no more than 48 hours.
# Drug concentration setting: The final drug concentration used in drug screening was 100 nM, and the GABA concentration was 0.05 μM. The whole cell patch clamp technique was used in electrophysiological assays, which could refer to the literature (I. Lecker, Y. Yin, D. S. Wang and B. A. Orser, British Journal of Anaesthesia, 2013, 110 (Si), i73-i81). The compositions of the extracellular solution for electrophysiology assay were as follows: 150 mM NaCl, 5 mM KCl, 2.5 mM CaCl2, 1 mM MgCl2, 10 mM HEPES, and 10 mM glucose (pH 7.4); the formulation of the electrode internal fluid for electrophysiology use was as follows: 140 mM CsCl, 11 mM EGTA, 10 mM HEPES, 2 mM CaCl2, 1 mM MgCl2, 4 mM MgATP, and 2 mM TEA (pH 7.3). The signal acquisition used an EPC-10 amplifier and the PatchMaster software (HEKA) or Axon700B amplifier and Clampex software (AXON). The recording electrode was pulled from borosilicate glass, and the electrode resistance was 4 to 6 MQ. The ALA-VC-8PG™ system was used for drug application. Single cell that grew independently was selected for recording. During recording, the cell membrane potential was clamped at −60 mV. During experiment, an extracellular solution was applied outside the cells for about 20 seconds. When the baseline reached to a stable state, the extracellular solution was switched to the GABA solution to induce an inward current. After about 20 to 40 seconds until the current was stable, the solution was switched to a corresponding drug solution to detect the effect of the drug. At last, the solution was switched to the extracellular solution, and the experiment was terminated when the baseline returned to the level before drug application. […]
# [2] = biological target: human α5β3γ2 receptors (α5-GABAA receptor) (Homo sapiens (Human), UniProt P18507+P31644); experiment: 3H-flunitrazepam competition binding, human α5β3γ2 GABAA receptor; conditions: HEK293 cell membranes, 1 nM 3H-flunitrazepam; read-out: α5-GABAAR Ki
# Outline: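 HEK293 membranes stably expressing each human receptor subtype ([…]) competed against 1 nM 3H-flunitrazepam in Tris buffer, 1 h at room temperature; flumazenil defined the low-signal control. Eight-point 4-fold test-compound dilutions; GF/C filtration and scintillation counting gave IC50 by curve fitting, converted to Ki.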
SMILES,inhibition at 0.1 µM [1] [%],Ki [2] [nM]
"Cc1nnn(-c2ccc(C(F)F)cc2)c1COc1ccc(N2CC[C@H]3CCNC(=O)[C@@H]3C2)nn1 (relative stereo) [Example 124, trans-7-(6-((1-(4-(Difluoromethyl)phenyl)-4-methyl-1H-1,2,3-triazol-5-yl)methoxy)pyridazin-3-yl)octahydro-2,7-naphthyridin-1(2H)-one]",48.4,2.4
"Cc1nnn(-c2ccc(C(F)F)cc2)c1COc1ccc(N2CCN3CC(C(C)(C)C)NC(=O)[C@@H]3C2)nn1 (single isomer, unassigned) [Example 201]",53.9,1.74
"Cc1nnn(-c2ccc(C(F)F)cc2)c1COc1ccc(N2CCN(CCN)C(=O)C2)nn1 [Example 67, 1-(2-Aminoethyl)-4-(6-((1-(4-(difluoromethyl)phenyl)-4-methyl-1H-1,2,3-triazol-5-yl)methoxy)pyridazin-3-yl)piperazin-2-one]",50.1,–
"Cc1nnn(-c2ccc(C(F)F)cc2)c1COc1ccc(N2CC(=O)N3CC4CC3(C4)C2)nn1 [Example 179, 2-(6-((1-(4-(Difluoromethyl)phenyl)-4-methyl-1H-1,2,3-triazol-5-yl)methoxy)pyridazin-3-yl)tetrahydro-6H-7,8a-methanopyrrolo[1,2-a]pyrazin-4(1H)-one]",–,6.33
"O=C1CN(c2ccc(OCc3c(Cl)nnn3-c3ccc(C(F)F)cc3)nn2)C[C@@H]2COCCN12 [Example 182, (R)-8-(6-((4-Chloro-1-(4-(difluoromethyl)phenyl)-1H-1,2,3-triazol-5-yl)methoxy)pyridazin-3-yl)hexahydropyrazino[2,1-c][1,4]oxazin-6(1H)-one]",–,0.71
"O=C1CN(c2ccc(OCc3c(Cl)nnn3-c3ccc(C(F)F)cc3)nn2)C[C@H]2COCCN12 [Example 183, (S)-8-(6-((4-Chloro-1-(4-(difluoromethyl)phenyl)-1H-1,2,3-triazol-5-yl)methoxy)pyridazin-3-yl)hexahydropyrazino[2,1-c][1,4]oxazin-6(1H)-one]",–,1.37
"O=C1NCCN2CCN(c3ccc(OCc4c(C(F)F)nnn4-c4ccc(C(F)F)cc4)nn3)C[C@@H]12 [Example 184, (S)-8-(6-((4-(Difluoromethyl)-1-(4-(difluoromethyl)phenyl)-1H-1,2,3-triazol-5-yl)methoxy)pyridazin-3-yl)hexahydro-2H-pyrazino[1,2-a]pyrazin-1(6H)-one]",–,2.53
"O=C1CN(c2ccc(OCc3c(C(F)F)nnn3-c3ccc(C(F)F)cc3)nn2)CCN1 [Example 185, 4-(6-((4-(Difluoromethyl)-1-(4-(difluoromethyl)phenyl)-1H-1,2,3-triazol-5-yl)methoxy)pyridazin-3-yl)piperazin-2-one]",–,0.96
O=C1CN(c2ccc(OCc3c(CC4CC4)nnn3-c3ccc(C(F)F)cc3)nn2)CCN1 [Example 186],–,4.62
"O=C1NCCN2CCN(c3ccc(OCc4c(CC5CC5)nnn4-c4ccc(C(F)F)cc4)nn3)C[C@@H]12 [Example 187, (S)-8-(6-((4-(Cyclopropylmethyl)-1-(4-(difluoromethyl)phenyl)-1H-1,2,3-triazol-5-yl)methoxy)pyridazin-3-yl)hexahydro-2H-pyrazino[1,2-a]pyrazin-1(6H)-one]",–,11.1
"Cc1cc(-c2nnn(-c3ccc(C(F)F)cc3)c2COc2ccc(N3CCNC(=O)C3)nn2)no1 [Example 188, 4-(6-((1-(4-(Difluoromethyl)phenyl)-4-(5-methylisoxazol-3-yl)-1H-1,2,3-triazol-5-yl)methoxy)pyridazin-3-yl)piperazin-2-one]",–,40.6
"O=C1CN(c2ccc(OCc3c(Cl)nnn3-c3ccc(Cl)cc3)nn2)CCN1 [Example 190, 4-(6-((4-Chloro-1-(4-chlorophenyl)-1H-1,2,3-triazol-5-yl)methoxy)pyridazin-3-yl)piperazin-2-one]",–,1.96
"O=C1CN(c2ccc(OCc3c(C(F)(F)F)nnn3-c3ccc(C(F)F)cc3)nn2)CCN1 [Example 191, 4-(6-((1-(4-(Difluoromethyl)phenyl)-4-(trifluoromethyl)-1H-1,2,3-triazol-5-yl)methoxy)pyridazin-3-yl)piperazin-2-one]",–,3.27
"Cc1nnn(-c2ccc(C(F)F)cc2)c1COc1ccc(N2CCN3c4ccncc4NC(=O)[C@@H]3C2)nn1 [Example 192, (S)-8-(6-((1-(4-(Difluoromethyl)phenyl)-4-methyl-1H-1,2,3-triazol-5-yl)methoxy)pyridazin-3-yl)-7,8,9,10-tetrahydro-5H-pyrazino[1,2-a]pyrido[3,4-e]pyrazin-6(6aH)-one]",–,17.4
"Cc1nnn(-c2ccc(C(F)F)cc2)c1COc1ccc(N2CCN3c4cccnc4NC(=O)[C@@H]3C2)nn1 [Example 193, (S)-3-(6-((1-(4-(difluoromethyl)phenyl)-4-methyl-1H-1,2,3-triazol-5-yl)methoxy)pyridazin-3-yl)-2,3,4,4a-tetrahydro-1H-pyrazino[1,2-a]pyrido[2,3-e]pyrazin-5(6H)-one]",–,1.45
"Cc1nnn(-c2ccc(C(F)F)cc2)c1COc1ccc(N2CCN3c4ncccc4NC(=O)[C@@H]3C2)nn1 [Example 194, (S)-8-(6-((1-(4-(Difluoromethyl)phenyl)-4-methyl-1H-1,2,3-triazol-5-yl)methoxy)pyridazin-3-yl)-7,8,9,10-tetrahydro-5H-pyrazino[1,2-a]pyrido[3,2-e]pyrazin-6(6aH)-one]",–,0.8
"Cc1nnn(-c2ccc(C(F)F)cc2)c1COc1ccc(N2CCN3c4nc(F)ccc4NC(=O)[C@@H]3C2)nn1 [Example 195, (S)-8-(6-((1-(4-(Difluoromethyl)phenyl)-4-methyl-1H-1,2,3-triazol-5-yl)methoxy)pyridazin-3-yl)-2-fluoro-7,8,9,10-tetrahydro-5H-pyrazino[1,2-a]pyrido[3,2-e]pyrazin-6(6aH)-one]",–,0.54
"Cc1nnn(-c2ccc(C(F)F)cc2)c1COc1ccc(N2CCN3CC(c4cccc(Cl)c4)NC(=O)[C@@H]3C2)nn1 (stereo partly drawn) [Example 205, (9aS)-3-(3-Chlorophenyl)-8-(6-((1-(4-(difluoromethyl)phenyl)-4-methyl-1H-1,2,3-triazol-5-yl)methoxy)pyridazin-3-yl)hexahydro-2H-pyrazino[1,2-a]pyrazin-1(6H)-one]",–,2.1
"Cc1nnn(-c2ccc(C(F)F)cc2)c1COc1nnc(N2CCN3CCNC(=O)[C@@H]3C2)c2ncccc12 [Example 206, (S)-8-(5-((1-(4-(Difluoromethyl)phenyl)-4-methyl-1H-1,2,3-triazol-5-yl)methoxy)pyrido[2,3-d]pyridazin-8-yl)hexahydro-2H-pyrazino[1,2-a]pyrazin-1(6H)-one]",–,0.64
"Cc1nnn(-c2ccc(C(F)F)cc2)c1COc1ccnc(N2CCNC(=O)C2)n1 [Example 213, 4-(4-((1-(4-(Difluoromethyl)phenyl)-4-methyl-1H-1,2,3-triazol-5-yl)methoxy)pyrimidin-2-yl)piperazin-2-one]",–,54.1
"O=C1CN(c2ccc(OCc3cnnn3-c3ccc(Cl)cc3)nn2)CCN1 [Example 214, 4-(6-((1-(4-Chlorophenyl)-1H-1,2,3-triazol-5-yl)methoxy)pyridazin-3-yl)piperazin-2-one]",–,49.2
Cc1nnn(-c2ccc(C(F)F)cc2)c1COc1ccc(N2CC(C(C)C)N3CCNC[C@H]3C2=O)nn1 (stereo partly drawn) [Example 215],–,36.1
